The target in the assay is T1, COX-2 (Homo sapiens, UniProt P35354).
T1 construct: from tissue; host or cells: heparinised human whole blood from a healthy donor, stimulated with LPS
T1 sequence (P35354 18-604): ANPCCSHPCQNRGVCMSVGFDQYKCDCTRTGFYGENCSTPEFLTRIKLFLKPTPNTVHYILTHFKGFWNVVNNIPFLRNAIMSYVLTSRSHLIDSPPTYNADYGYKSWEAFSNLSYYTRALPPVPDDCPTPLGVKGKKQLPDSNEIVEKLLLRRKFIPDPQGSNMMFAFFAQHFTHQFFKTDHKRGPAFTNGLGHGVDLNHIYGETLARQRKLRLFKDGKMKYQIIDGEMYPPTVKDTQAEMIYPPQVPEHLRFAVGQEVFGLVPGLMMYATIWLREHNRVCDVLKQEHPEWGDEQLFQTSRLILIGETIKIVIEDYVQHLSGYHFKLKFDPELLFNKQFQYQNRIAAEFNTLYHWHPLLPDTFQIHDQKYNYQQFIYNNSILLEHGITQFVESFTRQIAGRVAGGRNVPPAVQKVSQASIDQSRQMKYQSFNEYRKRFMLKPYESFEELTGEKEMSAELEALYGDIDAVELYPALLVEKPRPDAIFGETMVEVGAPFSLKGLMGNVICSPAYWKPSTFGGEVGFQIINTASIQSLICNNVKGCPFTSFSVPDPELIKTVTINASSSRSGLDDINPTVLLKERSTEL
Put plainly: Human whole blood assay, in vitro COX-2 assay (LPS-induced PGE2 by EIA). Type of assay: cell-based. The conditions noted are these: ratio of IC50 COX-1 to IC50 COX-2. The method, then: This test was performed according to the method described in Inflamm. Res., 45: 68-74 (1996).
A person who had not taken NSAIDs for at least one week and was healthy on the day of blood collection was selected as a subject for blood collection.
Blood was collected in heparin-treated test tubes (Venojectll blood collection tubes, Terumo Corporation), and an inflammatory stimulant, lipopolysaccharide (LPS) (Sigma-Aldrich Japan Inc., #L2880 from E. coli055:B5: diluted in phosphate buffered saline (PBS) to a final concentration of 100 μg/mL) was added to the blood. The mixture was dispensed in 500 μL aliquots into tubes. 2 μL of the test compound (final concentration: 0.1 μM to 1000 μM) dissolved in an appropriate solvent (DMSO or MilliQ water) was added and incubated at 37° C. for 24 hours to induce COX-2.
After incubation, the samples were centrifuged at 12,000×g for 5 minutes to separate serum. 100 μL of the obtained serum was added to 400 μL of ethanol to remove blood protein, and the mixture was centrifuged again at 12,000×g for 5 minutes. PGE2 in the supernatant was quantified by using an enzyme immunoassay (EIA) kit [Cayman (Ann, Arbor, Mich., USA) #514040]. The protocol followed the protocol attached to the kit.

On to `CC(C(=O)O)c1ccc(CC2CCCC2=O)cc1` (stereo not shown) [LOXONIN, loxoprofen], for which the “COX-2 S[…]. 1/COX. 2” value was 4.0.

Source of the values: US8431614B2, “Loxoprofen derivative and pharmaceutical preparation containing the same” (LTT Bio-Pharma Co., Ltd., priority 2009, dated 2013).
